Common to all, as to type: biochemical
The target in test [1] is T1, GST-tagged recombinant full-length human Pim-2 (Homo sapiens, UniProt Q9P1W9).
T1 construct: GST-tagged recombinant full-length human Pim-2; GST
Put plainly: PIM-2 Assay (as Example A). Conditions: averaged IC50; 4 μM ATP, 1.0 μM PIM2tide, 1.5 nM Pim-2. An outline of the steps: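 IC50 was derived by 4-parameter logistic fitting of percent-of-control data over a 10-point, 3-fold series (highest 10 μM, 2% DMSO). Reactions held 1.5 nM GST-Pim-2 (full-length, human), 4 μM [γ-33P]ATP and 1.0 μM PIM2tide for 60 min at 22 °C, pH 7.4; 33P-peptide captured on P81 filters.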

The next test concerns the target recombinant rat PIM-3 (Rattus norvegicus, UniProt O70444). The test can be described thus: PIM-3 Assay (as Example A). Conditions: averaged IC50; 30 μM ATP, 3.75 μM PIM2tide, 0.5 nM PIM-3. Summed up:
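33P incorporation from 30 μM [γ-33P]ATP into 3.75 μM PIM2tide by 0.5 nM rat PIM-3, 60 min at 22 °C in pH 7.4 MOPS buffer, read by P81 filter capture and scintillation counting. Compounds tested in 3-fold dilutions up to 10 μM final, 2% DMSO; percent-of-control data fitted by 4-parameter logistic for IC50.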

For another test, the target named is PIM-1 (Homo sapiens, UniProt P11309). Put plainly: Enzyme PIM-1 Assay ([33P]ATP incorporation into PIM2tide, filter plate). Particulars: averaged IC50; 35 μM ATP, 7.5 μM PIM2tide, 0.25 nM PIM-1, 60 min at 22° C. Summed up:
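Ten-point, 3-fold dilution series (10 μM top, 2% DMSO final) tested for inhibition of 33P transfer from 35 μM ATP to 7.5 μM PIM2tide by 0.25 nM PIM-1. Reaction 60 min, 22 °C, pH 7.4 MOPS/MgCl2 buffer; phosphocellulose capture, scintillation counting, IC50 where fitted POC equals 50.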

The values that follow come from US8889704B2 (Array BioPharma Inc., priority 2011, dated 2014).

Each structure is given as a SMILES string. Where a name gives a salt, the structure may show the parent alone.

The term IC50 denotes the point on the concentration scale where inhibition reaches its midpoint.

Sequence of PIM-1 (P11309 whole entry, species assumed): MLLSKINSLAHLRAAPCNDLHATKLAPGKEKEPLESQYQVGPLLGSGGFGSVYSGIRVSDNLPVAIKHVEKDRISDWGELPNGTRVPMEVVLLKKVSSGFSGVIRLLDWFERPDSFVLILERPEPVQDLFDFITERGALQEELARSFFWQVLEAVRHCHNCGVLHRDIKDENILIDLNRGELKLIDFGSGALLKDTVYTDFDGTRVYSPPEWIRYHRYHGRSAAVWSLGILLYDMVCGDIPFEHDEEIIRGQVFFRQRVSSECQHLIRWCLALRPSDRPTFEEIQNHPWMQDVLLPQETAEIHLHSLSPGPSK
T1 sequence (Q9P1W9 whole entry): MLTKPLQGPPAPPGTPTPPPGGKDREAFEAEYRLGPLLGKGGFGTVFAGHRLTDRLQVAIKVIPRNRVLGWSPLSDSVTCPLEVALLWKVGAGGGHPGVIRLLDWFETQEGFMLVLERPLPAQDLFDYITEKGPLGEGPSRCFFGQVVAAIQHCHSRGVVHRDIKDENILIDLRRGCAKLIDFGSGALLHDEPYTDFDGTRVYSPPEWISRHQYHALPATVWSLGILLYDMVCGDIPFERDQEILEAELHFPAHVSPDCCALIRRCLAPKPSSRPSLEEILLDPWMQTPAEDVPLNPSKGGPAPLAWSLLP

In the case of `CCc1cccc2ccc(-c3nnc4ccc([C@@H](N5C[C@@H]6C[C@H]5CN6)C(F)(F)F)cn34)nc12` [Example 66, 2-(6-((R)-1-((1S,4S)-2,5-diazabicyclo[2.2.1]heptan-2-yl)-2,2,2-trifluoroethyl)-[1,2,4]triazolo[4,3-a]pyridin-3-yl)-8-ethylquinoline dihydrochloride], the IC50 in test [1] was 14 nM; at recombinant rat PIM-3 it was 1.7 nM; at PIM-1, 0.92 nM.
For the compound `N#Cc1cccc2ccc(-c3nnc4ccc([C@@H](N5C[C@@H]6C[C@H]5CN6)C(F)(F)F)cn34)nc12` [Example 89, 2-(6-((R)-1-((1S,4S)-2,5-diazabicyclo[2.2.1]heptan-2-yl)-2,2,2-trifluoroethyl)-[1,2,4]triazolo[4,3-a]pyridin-3-yl)quinoline-8-carbonitrile dihydrochloride], the half-inhibitory concentration (IC50) in test [1] is above 100 nM; at recombinant rat PIM-3, 14 nM; against PIM-1, 5.38 nM.
For `C[C@]1(N)CCN([C@H](c2ccc3nnc(-c4ccc5cccc(C6CC6)c5n4)n3c2)C(F)(F)F)C1` [Example 97, (S)-1-((R)-1-(3-(8-cyclopropylquinolin-2-yl)-[1,2,4]triazolo[4,3-a]pyridin-6-yl)-2,2,2-trifluoroethyl)-3-methylpyrrolidin-3-amine dihydrochloride] the same measures were 65 nM, 8.1 nM and 0.11 nM.
Take `CC(C)(O)COc1cc2nc(-c3nnc4ccc([C@@H](N5CC[C@H](N)C5)C(F)(F)F)cn34)ccc2cc1F` [Example 302, 1-(2-(6-((R)-1-((S)-3-aminopyrrolidin-1-yl)-2,2,2-trifluoroethyl)-[1,2,4]triazolo[4,3-a]pyridin-3-yl)-6-fluoroquinolin-7-yloxy)-2-methylpropan-2-ol dihydrochloride]: the IC50 in test [1] was 69 nM; at recombinant rat PIM-3, 0.3 nM; against PIM-1, 0.22 nM.
For `CCC1(N)CCN([C@H](c2ccc3nnc(-c4ccc5cccc(OC)c5n4)n3c2)C(F)(F)F)C1` (single isomer, unassigned; diastereomer 2) [Example 252, dihydrochloride] the same measures were above 1000 nM, 24 nM and 4.05 nM.
On to `CO[C@H](C)COc1ccc2ccc(-c3nnc4ccc([C@@H](N5CC[C@H](N)C5)C(F)(F)F)cn34)nc2c1` [Example 277, (S)-1-((R)-2,2,2-trifluoro-1-(3-(7-((R)-2-methoxypropoxy)quinolin-2-yl)-[1,2,4]triazolo[4,3-a]pyridin-6-yl)ethyl)pyrrolidin-3-amine dihydrochloride], for which the IC50 in test [1] is 231 nM; on recombinant rat PIM-3 it was 0.7 nM; against PIM-1 it was 0.28 nM.
For `N[C@H]1CCN(C(c2ccc3nnc(-c4ccc5cc(F)c(OCCOC(=O)c6ccccc6)cc5n4)n3c2)C(F)(F)F)C1` (stereo in doubt) [Example 313, 2-((2-(6-((R)-1-((S)-3-aminopyrrolidin-1-yl)-2,2,2-trifluoroethyl)-[1,2,4]triazolo[4,3-a]pyridin-3-yl)-6-fluoroquinolin-7-yl)oxy)ethyl benzoate] the same measures were 5700 nM, 6.1 nM and 1.15 nM.
For the compound `N[C@@H]1CCN([C@@H](c2ccc3nnc(-c4ccc5cccc(C6CC6)c5n4)n3c2)C(F)(F)F)C1` [Example 56, (R)-1-((S)-1-(3-(8-cyclopropylquinolin-2-yl)-[1,2,4]triazolo[4,3-a]pyridin-6-yl)-2,2,2-trifluoroethyl)pyrrolidin-3-amine], the IC50 amounted to 16 nM in test [1], 2.4 nM at recombinant rat PIM-3 and 0.14 nM against PIM-1.
For `N[C@H]1CCN([C@@H](c2ccc3nnc(-c4ccc5cccc(OCC6CC6)c5n4)n3c2)C(F)(F)F)C1` (single isomer, unassigned) [Example 10, dihydrochloride] the same measures were 306 nM, 12 nM and 1.84 nM.
The corresponding values for `CC(C)Oc1c(F)ccc2ccc(-c3nnc4ccc([C@@H](N5CC[C@H](N)C5)C(F)(F)F)cn34)nc12` [Example 109, (S)-1-((R)-2,2,2-trifluoro-1-(3-(7-fluoro-8-isopropoxyquinolin-2-yl)-[1,2,4]triazolo[4,3-a]pyridin-6-yl)ethyl)pyrrolidin-3-amine hydrochloride] are above 100 nM, 5.5 nM and 0.28 nM.
For `COc1cccc2ccc(-c3nnc4ccc([C@@H](N5CC[C@@](C)(N)C5)C(F)(F)F)cn34)nc12` [Example 240, (R)-3-methyl-1-((R)-2,2,2-trifluoro-1-(3-(8-methoxyquinolin-2-yl)-[1,2,4]triazolo[4,3-a]pyridin-6-yl)ethyl)pyrrolidin-3-amine dihydrochloride] the same measures were above 1000 nM, 18 nM and 2.37 nM.
Regarding `COc1ccc2ccc(-c3nnc4ccc([C@@H](N5CC[C@H](N)C5)C(F)(F)F)cn34)nc2c1C` [Example 124, (S)-1-((R)-2,2,2-trifluoro-1-(3-(7-methoxy-8-methylquinolin-2-yl)-[1,2,4]triazolo[4,3-a]pyridin-6-yl)ethyl)pyrrolidin-3-amine hydrochloride], the concentration for half-maximal inhibition (IC50) in test [1] was above 100 nM; on recombinant rat PIM-3, 0.7 nM; against PIM-1, 0.21 nM.
The corresponding values for `CC(C)C(=O)Nc1ccc2ccc(-c3nnc4ccc(C(N5CC[C@H](N)C5)C(F)(F)F)cn34)nc2c1` (stereo partly drawn) [Example 44, N-(2-(6-(1-((S)-3-aminopyrrolidin-1-yl)-2,2,2-trifluoroethyl)-[1,2,4]triazolo[4,3-a]pyridin-3-yl)quinolin-7-yl)isobutyramide] are 29 nM, 0.2 nM and 0.13 nM.
The corresponding values for `COCCOc1ccc2ccc(-c3nnc4ccc([C@@H](N5C[C@@H](N)[C@H](OC)C5)C(F)(F)F)cn34)nc2c1` [Example 318, (3R,4R)-4-methoxy-1-((R)-2,2,2-trifluoro-1-(3-(7-(2-methoxyethoxy)quinolin-2-yl)-[1,2,4]triazolo[4,3-a]pyridin-6-yl)ethyl)pyrrolidin-3-amine] are 218 nM, 0.8 nM and 0.94 nM.
Regarding `Cc1cnn(-c2ccc3ccc(-c4nnc5ccc([C@@H](N6CC[C@H](N)C6)C(F)(F)F)cn45)nc3c2C)c1` [Example 190, (S)-1-((R)-2,2,2-trifluoro-1-(3-(8-methyl-7-(4-methyl-1H-pyrazol-1-yl)quinolin-2-yl)-[1,2,4]triazolo[4,3-a]pyridin-6-yl)ethyl)pyrrolidin-3-amine dihydrochloride], the 50% inhibitory concentration (IC50) was above 100 nM in test [1], 1 nM on recombinant rat PIM-3 and 1.03 nM against PIM-1.
The corresponding values for `O[C@@H]1CN([C@H](c2ccc3nnc(-c4ccc5cccc(C6CC6)c5n4)n3c2)C(F)(F)F)C[C@H]1O` [Example 78, (3R,4R)-1-((R)-1-(3-(8-cyclopropylquinolin-2-yl)-[1,2,4]triazolo[4,3-a]pyridin-6-yl)-2,2,2-trifluoroethyl)pyrrolidine-3,4-diol] are above 100 nM, 10 nM and 0.24 nM.
On to `N[C@@H]1CCN([C@H](c2ccc3nnc(-c4ccc5ccc(C6CC6)cc5n4)n3c2)C(F)(F)F)C1` [Example 61, (R)-1-((R)-1-(3-(7-cyclopropylquinolin-2-yl)-[1,2,4]triazolo[4,3-a]pyridin-6-yl)-2,2,2-trifluoroethyl)pyrrolidin-3-amine dihydrochloride], for which the IC50 in test [1] is above 100 nM; at recombinant rat PIM-3, 3.7 nM; against PIM-1 it was 0.59 nM.
For `CCOc1cc2nc(-c3nnc4ccc([C@H](N5CCC(N)(CC)C5)C(F)(F)F)cn34)ccc2cc1F` (single isomer, unassigned; diastereomer 2) [Example 245, dihydrochloride] the same measures were 125 nM, 0.5 nM and 1.04 nM.
For `CC(C)Oc1cccc2ccc(-c3nnc4ccc([C@H](N5CC[C@@H](O)C5)C(F)(F)F)cn34)nc12` [Example 103, (R)-1-((S)-2,2,2-trifluoro-1-(3-(8-isopropoxyquinolin-2-yl)-[1,2,4]triazolo[4,3-a]pyridin-6-yl)ethyl)pyrrolidin-3-ol] the same measures were above 100 nM, 3.1 nM and 0.1 nM.
For `CC(C)Oc1ccc2ccc(-c3nnc4ccc([C@@H](N5CC[C@H](N)C5)C(F)(F)F)cn34)nc2c1C1CC1` [Example 151, (S)-1-((R)-1-(3-(8-cyclopropyl-7-isopropoxyquinolin-2-yl)-[1,2,4]triazolo[4,3-a]pyridin-6-yl)-2,2,2-trifluoroethyl)pyrrolidin-3-amine dihydrochloride] the same measures were 85 nM, 1 nM and 0.49 nM.
